Test results taken from article PMC12400753 (Respiratory Research, 2025).

What was measured:
human LPAR3 = molecular target: T1, human LPAR3 (Homo sapiens, UniProt Q9UBY5); experiment: LPA-induced calcium mobilization in transiently transfected HEK293T cells; type: cell-based; conditions: empirically determined, used for stimulation
T1 construct: host or cells: HEK293T
T1 sequence (Q9UBY5 1-353): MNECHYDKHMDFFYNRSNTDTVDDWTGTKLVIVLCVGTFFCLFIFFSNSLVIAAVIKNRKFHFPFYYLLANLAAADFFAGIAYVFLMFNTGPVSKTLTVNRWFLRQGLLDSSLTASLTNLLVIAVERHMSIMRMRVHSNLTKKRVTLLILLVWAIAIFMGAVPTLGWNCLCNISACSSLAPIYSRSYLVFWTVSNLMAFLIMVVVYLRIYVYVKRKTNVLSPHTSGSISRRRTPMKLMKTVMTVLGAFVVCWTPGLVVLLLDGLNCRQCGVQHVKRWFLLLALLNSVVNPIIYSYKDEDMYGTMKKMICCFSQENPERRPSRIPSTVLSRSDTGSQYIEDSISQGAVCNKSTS
Description: (§1) We had previously assessed selectivity against LPAR2 and 3 [11]. […] Human LPAR1-6 plasmids were each transiently transfected into HEK293T cells and the EC80 (effective concentration producing 80% maximal effect) for LPA activation empirically determined. Selectivity was then tested in a concentration response paradigm using a 3 h preincubation followed by LPA-induced calcium mobilization.
(§2) Plasmids containing human LPAR1-6 were obtained from Origene (Rockville, MD) and maxiprepped at Eton Biosciences (San Diego, CA). Transfection mix was prepared by adding Fugene 6 transfection mix to serum free media and 0.1 µg plasmid. After a 20 m incubation, HEK293T cells (ATCC, Manassas VA) were lifted with Accutase and added to the Fugene mix at a final concentration of 0.5 × 10^4 cells/well. Cells were then plated on black clear bottom 96-well plates and incubated overnight in a 37 °C, 5% CO2 incubator. […] During the last hour of incubation, media was removed and replaced with Fluo-4 NW calcium assay dye prepared as per manufacturer’s recommendations in assay buffer. Agonist plates containing LPA were prepared for individual receptor subytpes using their respective EC80. Calcium mobilization was measured as per manufacturer’s directions on a Flexstation 3 (Molecular Devices, San Jose, CA).

human LPAR2 = molecular target: T2, human LPAR2 (Homo sapiens, UniProt Q9HBW0); experiment: as above; type: cell-based; conditions: empirically determined, used for stimulation
T2 construct: host or cells: HEK293T
T2 sequence (Q9HBW0 whole entry): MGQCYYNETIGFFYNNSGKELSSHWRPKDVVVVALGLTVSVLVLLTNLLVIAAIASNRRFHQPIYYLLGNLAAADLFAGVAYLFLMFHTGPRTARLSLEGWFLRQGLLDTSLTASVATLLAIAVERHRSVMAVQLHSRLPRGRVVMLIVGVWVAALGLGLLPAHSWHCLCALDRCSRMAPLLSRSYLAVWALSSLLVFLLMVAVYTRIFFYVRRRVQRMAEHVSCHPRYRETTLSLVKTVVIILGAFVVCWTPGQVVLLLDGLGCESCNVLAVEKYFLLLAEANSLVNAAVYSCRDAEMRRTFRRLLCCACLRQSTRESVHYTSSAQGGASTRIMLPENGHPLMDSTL
Description: as §1, §2

human LPAR6 = molecular target: T3, human LPAR6 (Homo sapiens, UniProt P43657); experiment: as above; type: cell-based; conditions: empirically determined, used for stimulation
T3 construct: host or cells: HEK293T
T3 sequence (P43657 1-344): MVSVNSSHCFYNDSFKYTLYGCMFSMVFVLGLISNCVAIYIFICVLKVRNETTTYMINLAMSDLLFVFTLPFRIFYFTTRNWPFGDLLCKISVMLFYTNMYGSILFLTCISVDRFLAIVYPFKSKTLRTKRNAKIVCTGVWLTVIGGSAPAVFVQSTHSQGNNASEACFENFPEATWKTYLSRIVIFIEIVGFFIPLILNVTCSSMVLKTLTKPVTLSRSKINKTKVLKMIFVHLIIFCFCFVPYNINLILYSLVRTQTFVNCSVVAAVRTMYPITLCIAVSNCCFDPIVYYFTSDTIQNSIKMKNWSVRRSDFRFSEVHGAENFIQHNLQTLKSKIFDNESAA
Description: as §1, §2

human LPAR5 = molecular target: T4, human LPAR5 (Homo sapiens, UniProt Q9H1C0); experiment: as above; type: cell-based; conditions: empirically determined, used for stimulation
T4 construct: host or cells: HEK293T
T4 sequence (Q9H1C0 whole entry): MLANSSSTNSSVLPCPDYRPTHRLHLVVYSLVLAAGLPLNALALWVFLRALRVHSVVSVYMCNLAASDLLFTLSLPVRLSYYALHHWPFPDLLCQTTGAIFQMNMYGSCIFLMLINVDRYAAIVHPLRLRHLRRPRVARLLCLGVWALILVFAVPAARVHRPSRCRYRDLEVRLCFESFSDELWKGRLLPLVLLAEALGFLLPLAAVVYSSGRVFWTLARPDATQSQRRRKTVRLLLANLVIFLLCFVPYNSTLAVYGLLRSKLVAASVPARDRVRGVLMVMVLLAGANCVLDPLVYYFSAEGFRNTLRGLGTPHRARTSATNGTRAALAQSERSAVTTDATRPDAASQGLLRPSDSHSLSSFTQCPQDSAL
Description: as §1, §2

human LPAR4 = molecular target: T5, human LPAR4 (Homo sapiens, UniProt Q99677); experiment: as above; type: cell-based; conditions: empirically determined, used for stimulation
T5 construct: host or cells: HEK293T
T5 sequence (Q99677 whole entry): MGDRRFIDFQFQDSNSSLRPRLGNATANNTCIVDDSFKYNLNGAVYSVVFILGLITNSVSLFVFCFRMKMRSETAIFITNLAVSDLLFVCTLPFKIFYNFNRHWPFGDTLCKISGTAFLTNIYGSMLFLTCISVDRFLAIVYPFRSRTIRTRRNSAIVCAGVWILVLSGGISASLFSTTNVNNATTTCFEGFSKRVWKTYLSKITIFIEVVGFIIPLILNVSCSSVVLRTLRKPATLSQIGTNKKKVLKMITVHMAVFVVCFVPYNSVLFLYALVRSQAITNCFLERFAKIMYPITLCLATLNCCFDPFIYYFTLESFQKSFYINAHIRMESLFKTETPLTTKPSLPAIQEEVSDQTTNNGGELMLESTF
Description: as §1, §2

LPAR1 = LPAR1 (Homo sapiens, UniProt Q92633); experiment: as above; type: cell-based; set-up: host or cells: HEK293T; conditions: empirically determined, used for stimulation
Chain of LPAR1 (Q92633 whole entry): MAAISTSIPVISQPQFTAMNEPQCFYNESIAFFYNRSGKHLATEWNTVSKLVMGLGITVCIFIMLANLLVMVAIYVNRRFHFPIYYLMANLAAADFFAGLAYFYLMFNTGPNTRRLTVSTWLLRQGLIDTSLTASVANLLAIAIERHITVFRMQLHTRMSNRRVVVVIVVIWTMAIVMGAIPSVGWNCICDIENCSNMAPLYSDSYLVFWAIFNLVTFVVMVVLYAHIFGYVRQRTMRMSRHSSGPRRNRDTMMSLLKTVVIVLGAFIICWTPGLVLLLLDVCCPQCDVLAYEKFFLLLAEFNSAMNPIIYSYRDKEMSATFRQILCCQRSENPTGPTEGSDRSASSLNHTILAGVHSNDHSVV
Description: as §1, §2

[1] = system: human precision cut lung slices from donors with pulmonary fibrosis; experiment: Fibrotic marker mRNA (qPCR) in cryopreserved PCLS from donors with pulmonary fibrosis; type: cell-based; conditions: 6 days
Source text: Slices were snap frozen and processed for transcript analysis by quantitative PCR. […] Concurrently, we evaluated two well-established, clinical stage antifibrotic mechanisms in this setting: an αvβ1/6 inhibitor (bexotegrast, PLN-74809) and a PDE4B inhibitor (nerandomilast, BI 1015550).
Precision cut lung slices were obtained from Anabios (San Diego, CA) and collected in accordance with their ethics policy (https://anabios.com/ethics-statement/). Donor demographics are available in Additional File 1. Slices were thawed as per vendor instructions. Briefly, PCLS were thawed at 37 °C then transferred to media consisting of DMEM/F12, Antibiotic-Antimytotic, and Penicillin-Streptomycin. PCLS were gently rinsed then transferred to a larger dish. A small tissue sample was excised with a scalpel for immunohistochemistry and qPCR characterization. […] Final concentration of DMSO was 0.1%. Media and compound were replaced every two days for a total of 6 days. At the end of the experiment, slices were collected and snap frozen. Quantitative PCR: RNA was extracted using RNEasy columns. RNA was reverse transcribed using qScript XLT per manufacturer’s instructions. Genes of interest were assessed by qPCR using Perfecta SYBR Green on a StepOne Plus Thermocycler (ABI). Parameters were as follows: 95 °C 30 s, then 45 cycles of 95 °C for 5 s and 60 °C for 30 s.

[2] = system: bleomycin-induced lung fibrosis; experiment: Systemic (subcutaneous) bleomycin mouse model; type: in vivo; conditions: 30 mg/kg oral twice a day, therapeutic
Description: Mice were injected subcutaneously with bleomycin (0.1 units/day), on a schedule of 5 days on/2 days off to induce fibrosis. […] Dosing was maintained until study end, at which point lung tissues were collected. The right lobe was snap frozen and processed for collagen analysis for hydroxyproline; the left lobe was sectioned and stained with Masson’s trichrome stain for histological assessment of tissue collagen. This study was conducted by Inotiv (West Lafayette, IN). Forty-four female 9 week old C57Bl/6 mice (Jackson Labs) were provided standard chow (Envigo, Cat #: 8940), housed under standard conditions, and allowed to acclimate for > 3 days prior to enrollment. Prior to start, mice were weighed and placed into balanced enrollment groups. Four days prior to start, mice were anesthetized, dorsal fur shaved and removed with depilatory agent, and two circles (~ 1.5 cm diameter) heat-branded on their dorsal abdomen. Fur was removed as needed for the balance of the study to ensure consistent location of s.c. injections. Beginning on day 0 and through day 26, mice were anesthetized with isoflurane and administered 0.9% NaCl or bleomycin injections (100 µl/injection, s.c.) into each of the circles (2 injections/mouse/d) on a 5 day on/2 day off paradigm. Mice were administered 0.9% NaCl (vehicle) or bleomycin (0.1 U) with bleomycin doses split evenly between the two circles (i.e., 0.05 U/circle). […] Weight measures and health observations were made daily. On day 27, mice were dosed to enable trough blood/plasma collection on day 28, which was collected via retro-orbital approach under isoflurane anesthesia. Following blood collection, mice were administered vehicle or compound on a timetable as appropriate to enable a peak blood collection 2 h postdose. At the time of sacrifice, mice were anesthetized with pentobarbital, a tracheotomy performed and interfaced with a positive pressure ventilator providing 100% O2. The mouse’s chest was then opened, and a needle interfaced with an infusion pump introduced to the right ventricle. […] The lungs were then harvested, immediately immersed in ice-cold 0.9% NaCl, gross dissected and subjected to morphological analyses. Tissue samples will be processed for biochemical and/or histological analyses as described below. Masson’s Trichrome Blue stained slides were subjected to histological analyses using color segmentation analysis for lung fibrosis. Frozen lung samples underwent hydroxyproline analysis as described below. Lung tissue processing – following exsanguination and flushing of the pulmonary circulation to clear blood, the lungs were removed, placed in ice-cold 0.9% NaCl and processed on wet ice. Extraneous tissue was removed and whole lung weight recorded. […]

[3] = system: fresh human PCLS from donors with pulmonary fibrosis; experiment: Secreted biomarkers in fresh PCLS from pulmonary fibrosis donors; type: cell-based; conditions: nintedanib 300 nM; 48 h
Source text: Translationally, biomarker-based strategies for assessing aberrant extracellular matrix deposition and remodeling in the context of disease pathogenesis and compound efficacy have become increasingly relevant. For the PCLS gene expression studies, slices were preserved through slow cryogenic freezing of tissue. While this affords experimental flexibility, some physiological relevance is lost over the course of cryostorage and recovery (e.g., immune cell loss). To circumvent this, fresh PCLS from two donors with pulmonary fibrosis were generated and immediately placed into culture. For this experiment, well-established, secreted fibrotic markers that encompass fibrogenesis and tissue remodeling were measured: C3M (a marker of collagen III degradation and an indicant of ECM remodeling and tissue turnover), Pro-C3 (a neo-epitope fragment of collagen III and a marker of active fibrogenesis and fibrosis progression), and Pro-C6 (a neoepitope fragment of COLVIA3 and a marker of remodeling and wound healing). […] Media was then removed and analyzed for biomarker concentration.
PCLS cultures for secreted biomarker analysis were performed at Fraunhofer ITEM (Hanover, Germany) using tissue from pathologist qualified, pulmonary fibrosis patients. Tissue from individual donors and 2 lung regions were collected in accordance with policies approved by the Hanover Medical School ethics committee. Only fibrotic tissue was used for experiments. Region 1 consisted of subpleural tissue and Region 2 of central tissue. For each, lung lobes were filled with low-melting agarose then sectioned at 300 μm on a Krumdiek tissue slicer as described in Hesse et al., 2022. Slices were incubated in DMEM containing penicillin and streptomycin, two slices per region were used. […] Supernatant was collected and shipped to Nordic Bioscience (Herlev, Denmark) for C3M, Pro-C6 and Pro-C3 analysis. Donor information can be found in Additional File 1.

lysophosphatidic acid [LPA, reference compound]
LPA EC80 (human LPAR3): 10 µM
LPA EC80 (human LPAR2): 5 µM
LPA EC80 (human LPAR6): 13 µM
LPA EC80 (human LPAR5): 1 µM
LPA EC80 (human LPAR4): 10 µM
LPA EC80 (LPAR1): 5 µM

COCCN(CCCCc1ccc2c(n1)NCCC2)CC[C@H](Nc1ncnc2ccccc12)C(=O)O [bexotegrast]
COL3A1 mRNA expression vs vehicle ([1]; 300 nM, P 0.1827 (not significant)): reduces
SERPINE1 mRNA expression vs vehicle ([1]; 300 nM, P 0.4056 (not significant)): reduces
LPAR1 mRNA expression vs vehicle ([1]; 300 nM, P 0.8283): unchanged
COL1A1 mRNA expression vs vehicle ([1]; 300 nM, P < 0.05): significantly less
TIMP-1 mRNA expression vs vehicle ([1]; 300 nM, P < 0.05): significantly lower

Cc1noc(-c2ccc(-c3ccc(C4(C(=O)O)CC4)cc3)cc2)c1NC(=O)O[C@H](C)c1ccccc1 [BMS-986020, reference compound]
lung hydroxyproline compared to bleomycin/vehicle [2]: no reduction in hydroxyproline
reduction in tissue collagen fraction (TCF), trichrome ([2]; p = 0.2723): 62%

[O-][S+]1CCc2nc(N3CCC(c4ncc(Cl)cn4)CC3)nc(NC3(CO)CCC3)c21 (centres unmarked) [nerandomilast]
COL3A1 mRNA expression vs vehicle ([1]; 10 µM, P 0.1621 (not significant)): reduces
TIMP1 mRNA expression vs vehicle ([1]; 10 µM, P 0.6976 (not significant)): reduces
SERPINE1 mRNA expression vs vehicle ([1]; 10 µM, P 0.8986 (not significant)): reduces
COL1A1 mRNA expression vs vehicle ([1]; 10 µM, P < 0.05): significantly less

COC(=O)c1ccc2c(c1)NC(=O)/C2=C(\Nc1ccc(N(C)C(=O)CN2CCN(C)CC2)cc1)c1ccccc1 [nintedanib, reference compound]
secreted C3M [3]: significant reduction
secreted Pro-C3 [3]: did not show a significant decrease
secreted Pro-C6 [3]: reduced
